Laboratory results published in patent publication US7893024B2, “Enhancement of iron chelation therapy” (priority 2002, dated 2011).
Several values for one entry are separate records, joined by “and”; a condition that tells them apart may be missing. Equal values may be shown once. Where a name gives a salt, the structure may show the parent alone.

Key:
ferritin [1] = target: T1, ferritin (Aquarana catesbeiana, UniProt P07229); test: Iron release from ferritin with Desferal substituted for bipyridyl, Fe(III)-Desferal complex monitored at 430 nm; assay type: biochemical; details: H-Wild Type ferritin, in the absence of urea
T1 construct: made in house; host or cells: E. coli BL21-DE3-PLysS, vector pET-9a
T1 sequence (P07229 2-176): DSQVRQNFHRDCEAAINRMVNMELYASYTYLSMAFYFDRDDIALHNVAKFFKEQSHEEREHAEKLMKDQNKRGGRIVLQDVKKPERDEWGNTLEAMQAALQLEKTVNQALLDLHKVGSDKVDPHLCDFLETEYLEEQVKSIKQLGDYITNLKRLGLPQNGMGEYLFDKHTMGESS
Text: Desferal® (desferrioxamine mesylate or DFO), a chelator of Fe(III), is currently the drug of choice to remove Fe from patients with excess tissue iron accumulated from monthly transfusions to treat betaglobin gene mutations (Sickle Cell Disease and Beta Thalassemia). Positive selection has made the mutations relatively common (<10%) in areas of the world where malaria is endemic. […] In order to determine if unfolding ferritin pores increased Desferal® chelation of ferritin Fe, the chelator was substituted for bipyridyl in the mixture of NADH/FMN usually used. Formation of the Fe(III)— Desferal® complex was monitored at 430 nm, the absorbance maximum under the conditions used.

ferritin [2] = details: Crichton et al. 1980; cited from earlier work
ferritin [3] = target: T1, ferritin; test: Iron release from mineralized recombinant ferritin monitored as formation of Fe(II)-bipyridyl (A522 nm), NADH/FMN reductant; assay type: biochemical; details: for increase in the initial rate of iron release: in combination with the chelator 2,2′-bipyridine
Description: Briefly, as described in further detail below, recombinant ferritin was expressed, isolated, and mineralized. The mineralized, recombinant ferritin was incubated with a protein unfolding reagent (e.g., urea, guanidine, or Triton X-100). Chelator and reductant was then added to the reaction, and rates of iron release were monitored by UV absorbance detection of formation of Fe(II)-bipyridyl (A522 nm/sec).
Production of recombinant ferritin. Recombinant ferritin was expressed using bullfrog sequences as the kinetic properties have been particularly favorable for study (Takagi H., et al. (1998) J. Biol. Chem. 273:18685)(18)(19)(20). Crystallographic studies of frog and human ferritins (Trikha, J., Theil, E. C. & Allewell, N. M. (1995) J Mol Biol 248, 949-67)(Hempstead, P. D., Yewdall, S. J., Fernie, A. R., Lawson, D. M., Artymiuk, P. J., Rice, D. W., Ford, G. C., & Harrison, P. M. (1997) J. Mol. Biol. 268, 424-448) show very similar structures and mechanisms (Bou-Abdallah, F., Papaefthymiou, G. C., Scheswohl, D. M., Stanga, S. D., Arosio, P. & Chasteen, N. D. (2002) Biochem J. 364, 57-63)(Hwang, J., Krebs, C., Huynh, B. H., Edmondson, D. E., Theil, E. C. & Penner-Hahn, J. E. (2000) Science 287, 122-125)(18). […] Two proteins were compared in the study: H-wild type and H-L134P, an “open” pore protein for which the crystal structure is known (Takagi H., et al. (1998) J. Biol. Chem. 273:18685). Sequences coding H-wild type and H-L134P ferritin were inserted into the vector pET-9a and expressed in E. coli BL21-DE3-PLysS (Stratagene®). The recombinant proteins were isolated as the 24-subunit assembly without Fe (<0.5/subunit) using methods previously described (20).
Mineralization of ferritin. Recombinant ferritin was mineralized by adding a freshly prepared, acidic solution of FeSO4 (to minimize oxidation and hydrolysis) to apoferritin in buffer and incubating at room temperature for 1 hour and then overnight at 4° C., to complete hydrolysis of ferric mineral precursors (18). The final solution was 2.08 μM protein with 480 Fe/protein ([…]) in 0.1 M MOPS, 0.1M NaCl, pH=7. Sterile solutions of mineralized ferritin are stable for months to years.
Measurement of iron release rates. Rates of Fe exit from ferritin (rates of dissolving the Fe biomineral) were monitored as formation of Fe(II)-bipyridyl (A522 nm/sec). The reaction was started by mixing an equal volume of mineralized ferritin with an equal volume of a solution of a NADH (5 mM), FMN (5 mM), and bipyridyl (5 mM) as first described by Jones and Walsh (21). The initial rates of iron chelation were calculated by taking the linear ascending part of the multiphasic reaction curve, averaged from 3 independent assays/protein preparations and 2-3 independent protein preparations.
Triton X-100 and Urea. One set of reactions was treated with Triton X-100 at final concentrations of 0.1%, 1.0% or 10% (volume/volume). A second set of reactions was treated with urea at final concentrations of 1 mM, 10 mM, or 1M. A third set of reactions was treated with a control solution containing only buffer. All three sets of ferritin solutions were incubated further for 17-20 hours (i.e., overnight) at 4° C., then returned to room temperature. Iron release was initiated by the addition of 2.5 mM bipyridine, 2.5 mM NADH, and 2.5 mM FMN (final concentrations). The amount of iron released from ferritin was monitored at room temperature, over a period of one hour, by appearance of absorbance at 522 nm due to formation of the Fe(II)-bipyridyl complex.
Urea, Guanidine HCl, and Triton X-100. The effects on iron release from ferritin of urea, guanidine hydrochloride, and Triton X-100 were studied by mixing solutions of the mineralized protein with a protein unfolding reagent and incubating at room temperature for 1 hour, followed by incubating overnight at 4° C. before adding reductant and chelator. […]

HeLa cells = test: Cell viability by trypan blue exclusion test
Description: HeLa cells, cultured in DMEM medium with 10% FBS, were incubated with the protein unfolding agents for 24 hours at 37° C. in 12-well plates. Cells were treated with trypsin, fresh medium was added and the cells were suspended in the fresh DMEM medium with 10% FBS. Cell suspensions were mixed 1:4 with trypan blue in 0.85% NaCl (weight/volume), incubated 5 minutes at room temperature, then examined by light microscopy in a hemocytometer chamber. Blue cells are scored as non-viable. For each condition, 1-3 analyses were performed.

ferritin [4] = target: T1, ferritin; test: Subdomain unfolding of ferritin by circular dichroism (helix/coil transition); set-up: species or system bullfrog
Description: The effects of protein unfolding agents on subdomain unfolding of ferritin were monitored as changes in the Circular Dichroism (CD) spectra. Both wild type ferritin (H-WT) and the open pore mutant H-L134P were analyzed. Solutions of mineralized protein (2.08×10^−1 μM in 10 mM MOPS buffer, pH 7.0), were incubated with or without 1 mM urea overnight as described herein, and equilibrated for 10 minutes at the selected temperature before recording spectra between 300 nm to 200 nm. CD spectra recorded on a Pi-180 spectrophotometer (Applied Photophysics, Surrey, UK) over the temperature range of 5° C. to 65° C. Spectra were recorded in a cuvette with a 1 cm path length at protein concentrations of 2×10^−7 M, except for H-L134P, the protein with fully open pores in protein crystals, where the concentration was 4×10^−7 M to compensate for the lower signal at higher temperatures. Contributions of the solvent to the protein spectra were subtracted. Molar ellipticities at 220 nm were determined from the optical rotation, and the percent alpha helix content was calculated as described by Frére et al (Frere, V., Sourgen, F., Monnot, M., Troalen, F. & Fermandjian, S. (1995) J Biol Chem 270, 17502-17507) and Zhong and Johnson (Zhong, L. & Johnson, W. C. J. (1992) Proc Natl Acad Sci USA 89, 4462-4465). Curves were fit to the data using Sigmaplot 8.0. Fits and data matched with P<0.001. Data presented for H-L 134P ferritin are representative of two sets of measurements on one preparation and the data for the H-wild type protein, with and without urea, are representative of 3 independent protein preparations.

ferritin [5] = target: T1, ferritin; test: Fe uptake and mineralization / Fe(II) oxidation at the ferroxidase site (A650); assay type: biochemical, bullfrog
Description: The temperature of the helix coil/transition in the pore was lower in both H-L134P protein and the wild type protein +1 mM urea (FIG. 3B) and is in the physiological range. […] However, the stability of the partially unfolded H-L 134P protein was lower, and loss of helix continued between 45° C. and 65° C. […] Rates were 1.9±0.1×10^−3, 2.93±0.1×10^−3 and 4.68±0.06×10^−3 mmoles/second for H-WT ferritin+1 mM urea, H-L134P ferritin and Wild Type H ferritin+1M urea, respectively (FIGS. 2A, B). The local nature of the helix/coil transition induced by 1 mM urea observed between 35° C. and 50° C. (FIG. 3B), is emphasized by the small effects on other ferritin functions such as Fe uptake and mineralization where the rates were 0.67±0.01 and 0.57±0.01 ΔA650s^−1 for zero and 10 mM urea, respectively, for 480 Fe/protein.

[6] = 1M NaCl, MOPS buffer (data not shown)
[7] = 1.0 mM to 1 M urea or guanidine

CC(=O)N(O)CCCCCNC(=O)CCC(=O)N(O)CCCCCNC(=O)CCC(=O)N(O)CCCCCN [Desferal®, desferrioxamine mesylate]
Fe that could be chelated (ferritin [1]): 10% | Fe removal from ferritin in solution (ferritin [2]): removes little Fe

[Cl-].[Na+] [NaCl, Sodium chloride, reference compound]
initial rate of Fe(II)-bipyridyl formation (ferritin [3]; [6]): decreased | total amount of Fe chelated (ferritin [3]; [6]): decreased

Cl.N=C(N)N [guanidine, guanidine hydrochloride]
Average % nonviable cells (HeLa cells; 1 mM, 24 hours at 37° C.): 6% | cell viability versus cells in normal medium (HeLa cells; indicated concentrations (1 mM)): No significant difference | effect on formation rate of Fe(II)-bipyridyl (ferritin [3]; Gd.HCl at 0.1 mM): increased rates significantly | effect on ferritin iron release (formation rate of Fe(II)-bipyridyl) (ferritin [3]; Gd.HCl at 1 and 10 mM): comparable to the effect of 1 and 10 mM urea

NC(N)=O [urea]
downshift of a helix/coil transition (ferritin [4]; [7]): 10 °C | helix/coil transition temperature after downshift (ferritin [4]; [7]): 43 °C | Tm (midpoint) of decrease in helix structure (ferritin [4]; WT ferritin, 1 mM urea): 41 °C | helix loss (ferritin [4]; WT ferritin, 1 mM urea): ~10% | increase of transition temperature in the absence of urea versus 1 mM urea (ferritin [4]; wild type ferritin): 12 °C | time for removal of >95% of the Fe (ferritin [3]; 1 mM urea): 33 min | time for removal of >95% of the Fe (ferritin [3]; 10 mM urea): 13 min | increase over the initial rate without urea (ferritin [3]; 1 M urea): 4.81 fold | time for removal of >95% of the Fe (ferritin [3]; 1 M urea): 4 min | initial rate of Fe(II) bipyridyl formation (ferritin [3]; 2 M urea): 1.02±0.11×10^−3 mmoles/second | time for removal of >95% of the Fe (ferritin [3]; 2 M urea): 20 min | initial rate of Fe(II) bipyridyl formation (ferritin [3]; H-WT ferritin, 1 mM urea): 1.90±0.11×10^−3 mmole/second and 1.9±0.1×10^−3 mmole/second | initial rate of Fe(II) bipyridyl formation (ferritin [3]; H-WT ferritin, 1 M urea): 4.68±0.06×10^−3 mmoles/second | decrease in the time to release 50% of the total iron in ferritin (ferritin [3]; chelator 2,2′-bipyridine, absorbance at 522 nm=0.4): 10 fold | increase in the initial rate of iron release (ferritin [3]): 2-4 fold | most effective concentrations (ferritin [3]; urea, enhancement of iron release): 1 to 1000 mM | Fe(II)-bipyridyl formation in the absence of FMN/NADH (ferritin [3]; urea-treated protein, no reductant): No Fe(II)-bipyridyl formed | rate of Fe uptake and mineralization (ferritin [5]; 10 mM urea, 480 Fe/protein): 0.57±0.01 ΔA650s^−1 | Fe(II) oxidation, a measure of Fe(II) entry and binding to the ferroxidase site (ferritin [5]; urea-treated ferritin): slightly inhibited

Triton X-100
toxicity to cells (HeLa cells; 1.0% and 10% (data not shown)): toxic | most effective concentration (ferritin [3]; Triton X-100, enhancement of iron release): 1.0-10 % (volume/volume) | effect on ferritin iron release (formation rate of Fe(II)-bipyridyl) (ferritin [3]; Triton X-100 at 1% and 10%): comparable to the effect of 1 and 10 mM urea | increase in the initial rate of iron release (ferritin [3]): 2-3 fold
